Reference: patent EP4813989A1, “CRYSTAL, PHARMACEUTICAL COMPOSITION, PREPARATION METHOD THEREFOR, AND USE THEREOF” (TYK Medicines, Inc., priority 2023, dated 2025)

Experiments:
Type in all cases: physicochemical
[1] = Dynamic vapor sorption (DVS) hygroscopicity
Protocol: Dynamic vapor sorption (DVS) was used to investigate hygroscopicities of an active pharmaceutical ingredient in different crystal forms.
Determination method: • instrument: dynamic vapor sorption analyzer; temperature: 25°C; protective gas and flow rate: N2, 200 mL/min; • dm/dt: 0.002%/min; RH range: 0%RH-100%RH; cycle: 1 full cycle.

[2] = High-humidity test, related substances by HPLC; settings: 90%RH±5%RH; for Impurity content RRT0.55 / Impurity content RRT0.66 / Impurity content RRT0.71 / Impurity content RRT0.94 / Impurity content RRT1.02 / Impurity content RRT1.06 / Impurity content RRT1.08 / Impurity content RRT1.15 / Total impurities: open
Excerpt: An investigation method for the high-humidity test can be seen in Table 12 below.
Results of related substances in each crystal form under the high-humidity condition (90%RH±5%RH) can be seen in Table 16.
HPLC detection results of related substances under the high-humidity condition can be seen as follows: Table 16

[3] = Light exposure test, related substances by HPLC
Excerpt: An investigation method for the light exposure test can be seen in Table 13 below.
Results of related substances in each crystal form under the light exposure condition (4500lx±500lx) can be seen in Table 17.
HPLC detection results of related substances under the light exposure condition can be seen as follows: Table 17

[4] = Accelerated test, related substances by HPLC; settings: 40°C±2°C, 75%RH±5%RH; for Impurity content RRT0.55 / Impurity content RRT0.66 / Impurity content RRT0.71 / Impurity content RRT0.94 / Impurity content RRT1.02 / Impurity content RRT1.06 / Impurity content RRT1.08 / Impurity content RRT1.15 / Total impurities: open
Protocol: An investigation method for the accelerated test can be seen in Table 14 below.
Change results of related substances in each crystal form under the accelerated condition (40°C±2°C, 75%RH±5%RH) can be seen in Table 18.
HPLC detection results of related substances under the accelerated condition can be seen as follows: Table 18

[5] = Flowability test (angle of repose)
Protocol: A flowability determination method was as follows: an angle of repose was determined by using a device composed of 2 to 3 funnels connected in series in a staggered manner, and drug powder was slowly and uniformly passed through the funnels onto a stationary base with a diameter d, so as to form a symmetric powder pile with a single layer of powder at the bottom. During the formation of the powder pile, a height of the funnels was maintained within 2-4 cm from a top of the powder pile, a height h of the cone was determined, and the angle of repose was calculated as tanθ=h/(d/2).

C[C@@H](Nc1ccn2ncc(C3=NOC(C)(C)N3)c2n1)c1cc(F)cc(F)c1F [crystal form E]
Hygroscopicity (conclusion) [1]: had hygroscopicity | DVS weight loss ([1]; humidity 20% or less): up to 3% | DVS weight loss ([1]; humidity increased from 0% to 30%): approximately 2% | DVS weight gain ([1]; humidity increased from 90% to 100%): approximately 4% | DVS weight loss ([1]; humidity reduced from 100% to 90%): approximately 2% | Increase of impurity RRT1.02 content ([2]; 32 days): no essential changes | Increase of impurity RRT1.08 content ([2]; 32 days): 0.04% | Increase of total impurities ([2]; 32 days): 0.05% | Impurity content RRT0.55 ([2]; 0 day): 0.04% | Impurity content RRT0.66 ([2]; 0 day): 0.21% | Impurity content RRT0.71 ([2]; 0 day): 0.14% | Impurity content RRT0.94 ([2]; 0 day): 0.03% | Impurity content RRT1.02 ([2]; 0 day): 0.21% | Impurity content RRT1.06 ([2]; 0 day): 0.07% | Impurity content RRT1.08 ([2]; 0 day): 0.17% | Impurity content RRT1.15 ([2]; 0 day): 0.03% | Total impurities ([2]; 0 day): 0.89% | Impurity content RRT0.55 ([2]; 5 days): 0.03% | Impurity content RRT0.66 ([2]; 5 days): 0.21% | Impurity content RRT0.71 ([2]; 5 days): 0.15% | Impurity content RRT0.94 ([2]; 5 days): 0.03% | Impurity content RRT1.02 ([2]; 5 days): 0.21% | Impurity content RRT1.06 ([2]; 5 days): 0.05% | Impurity content RRT1.08 ([2]; 5 days): 0.18% | Impurity content RRT1.15 ([2]; 5 days): 0.03% | Total impurities ([2]; 5 days): 0.89% | Impurity content RRT0.55 ([2]; 11 days): 0.04% | Impurity content RRT0.66 ([2]; 11 days): 0.21% | Impurity content RRT0.71 ([2]; 11 days): 0.14% | Impurity content RRT0.94 ([2]; 11 days): 0.02% | Impurity content RRT1.02 ([2]; 11 days): 0.20% | Impurity content RRT1.06 ([2]; 11 days): 0.05% | Impurity content RRT1.08 ([2]; 11 days): 0.21% | Impurity content RRT1.15 ([2]; 11 days): 0.03% | Total impurities ([2]; 11 days): 0.89% | Impurity content RRT0.55 ([2]; 32 days): 0.04% | Impurity content RRT0.66 ([2]; 32 days): 0.22% | Impurity content RRT0.71 ([2]; 32 days): 0.15% | Impurity content RRT0.94 ([2]; 32 days): 0.05% | Impurity content RRT1.02 ([2]; 32 days): 0.19% | Impurity content RRT1.06 ([2]; 32 days): 0.04% | Impurity content RRT1.08 ([2]; 32 days): 0.21% | Impurity content RRT1.15 ([2]; 32 days): 0.04% | Total impurities ([2]; 32 days): 0.94% | Increase of impurity RRT0.66 content ([3]; 4500 lx±500 lx, 32 days): 0.04% | Increase of impurity RRT0.71 content ([3]; 4500 lx±500 lx, 32 days): not increased | Increase of impurity RRT1.02 content ([3]; 4500 lx±500 lx, 32 days): not increased | Increase of impurity RRT1.08 content ([3]; 4500 lx±500 lx, 32 days): 0.08% | Increase of total impurities ([3]; 4500 lx±500 lx, 32 days): 0.13% | Impurity content RRT0.55 ([3]; 4500lx±500lx, open, 0 day): 0.04% | Impurity content RRT0.66 ([3]; 4500lx±500lx, open, 0 day): 0.21% | Impurity content RRT0.71 ([3]; 4500lx±500lx, open, 0 day): 0.14% | Impurity content RRT0.94 ([3]; 4500lx±500lx, open, 0 day): 0.03% | Impurity content RRT1.02 ([3]; 4500lx±500lx, open, 0 day): 0.21% | Impurity content RRT1.06 ([3]; 4500lx±500lx, open, 0 day): 0.07% | Impurity content RRT1.08 ([3]; 4500lx±500lx, open, 0 day): 0.17% | Impurity content RRT1.15 ([3]; 4500lx±500lx, open, 0 day): 0.03% | Total impurities ([3]; 4500lx±500lx, open, 0 day): 0.89% | Impurity content RRT0.55 ([3]; 4500lx±500lx, open, 5 days): 0.03% | Impurity content RRT0.66 ([3]; 4500lx±500lx, open, 5 days): 0.22% | Impurity content RRT0.71 ([3]; 4500lx±500lx, open, 5 days): 0.14% | Impurity content RRT0.94 ([3]; 4500lx±500lx, open, 5 days): 0.02% | Impurity content RRT1.02 ([3]; 4500lx±500lx, open, 5 days): 0.22% | Impurity content RRT1.06 ([3]; 4500lx±500lx, open, 5 days): 0.05% | Impurity content RRT1.08 ([3]; 4500lx±500lx, open, 5 days): 0.20% | Impurity content RRT1.15 ([3]; 4500lx±500lx, open, 5 days): 0.04% | Total impurities ([3]; 4500lx±500lx, open, 5 days): 0.92% | Impurity content RRT0.55 ([3]; 4500lx±500lx, open, 11 days): 0.04% | Impurity content RRT0.66 ([3]; 4500lx±500lx, open, 11 days): 0.22% | Impurity content RRT0.71 ([3]; 4500lx±500lx, open, 11 days): 0.14% | Impurity content RRT0.92 ([3]; 4500lx±500lx, open, 11 days): 0.03% | Impurity content RRT0.94 ([3]; 4500lx±500lx, open, 11 days): 0.03% | Impurity content RRT1.02 ([3]; 4500lx±500lx, open, 11 days): 0.20% | Impurity content RRT1.06 ([3]; 4500lx±500lx, open, 11 days): 0.04% | Impurity content RRT1.08 ([3]; 4500lx±500lx, open, 11 days): 0.24% | Impurity content RRT1.15 ([3]; 4500lx±500lx, open, 11 days): 0.03% | Total impurities ([3]; 4500lx±500lx, open, 11 days): 0.98% | Impurity content RRT0.55 ([3]; 4500lx±500lx, open, 32 days): 0.03% | Impurity content RRT0.66 ([3]; 4500lx±500lx, open, 32 days): 0.25% | Impurity content RRT0.71 ([3]; 4500lx±500lx, open, 32 days): 0.13% | Impurity content RRT0.94 ([3]; 4500lx±500lx, open, 32 days): 0.08% | Impurity content RRT1.02 ([3]; 4500lx±500lx, open, 32 days): 0.20% | Impurity content RRT1.06 ([3]; 4500lx±500lx, open, 32 days): 0.04% | Impurity content RRT1.08 ([3]; 4500lx±500lx, open, 32 days): 0.25% | Impurity content RRT1.15 ([3]; 4500lx±500lx, open, 32 days): 0.04% | Total impurities ([3]; 4500lx±500lx, open, 32 days): 1.02% | Increase of impurity RRT1.08 content ([4]; 32 days): 0.03% | Impurity content RRT0.55 ([4]; 0 day): 0.04% | Impurity content RRT0.66 ([4]; 0 day): 0.21% | Impurity content RRT0.71 ([4]; 0 day): 0.14% | Impurity content RRT0.94 ([4]; 0 day): 0.03% | Impurity content RRT1.02 ([4]; 0 day): 0.21% | Impurity content RRT1.06 ([4]; 0 day): 0.07% | Impurity content RRT1.08 ([4]; 0 day): 0.17% | Impurity content RRT1.15 ([4]; 0 day): 0.03% | Total impurities ([4]; 0 day): 0.89% | Impurity content RRT0.55 ([4]; 5 days): 0.04% | Impurity content RRT0.66 ([4]; 5 days): 0.21% | Impurity content RRT0.71 ([4]; 5 days): 0.15% | Impurity content RRT0.94 ([4]; 5 days): 0.03% | Impurity content RRT1.02 ([4]; 5 days): 0.21% | Impurity content RRT1.06 ([4]; 5 days): 0.05% | Impurity content RRT1.08 ([4]; 5 days): 0.18% | Impurity content RRT1.15 ([4]; 5 days): 0.03% | Total impurities ([4]; 5 days): 0.89% | Impurity content RRT0.55 ([4]; 11 days): 0.04% | Impurity content RRT0.66 ([4]; 11 days): 0.21% | Impurity content RRT0.71 ([4]; 11 days): 0.15% | Impurity content RRT0.94 ([4]; 11 days): 0.02% | Impurity content RRT1.02 ([4]; 11 days): 0.21% | Impurity content RRT1.06 ([4]; 11 days): 0.05% | Impurity content RRT1.08 ([4]; 11 days): 0.21% | Impurity content RRT1.15 ([4]; 11 days): 0.03% | Total impurities ([4]; 11 days): 0.94% | Impurity content RRT0.55 ([4]; 32 days): 0.04% | Impurity content RRT0.66 ([4]; 32 days): 0.21% | Impurity content RRT0.71 ([4]; 32 days): 0.16% | Impurity content RRT0.94 ([4]; 32 days): 0.04% | Impurity content RRT1.02 ([4]; 32 days): 0.20% | Impurity content RRT1.06 ([4]; 32 days): 0.04% | Impurity content RRT1.08 ([4]; 32 days): 0.20% | Impurity content RRT1.15 ([4]; 32 days): 0.05% | Total impurities ([4]; 32 days): 0.95% | angle of repose [5]: 37.9 °
